# Tested on: HCV
# Test: anti-HCV activity assay in cell culture (HCV RNA by one-step quantitative RT-PCR)
# Type: cell-based
# Conditions: Hepatitis C virus, Huh7.5, 96 h, compound at 10 μmol/L; Huh7.5 cells infected with HCV virus particles; cultured 96 hrs; HCV RNA in cells vs virus control group; read-out: percent inhibition (%)
row,SMILES,inhibition at 10 µM
1,"COc1ccc(NCc2nc(N3CCN(C)CC3)ccc2C#N)cc1 [Compound 36, 2-((4-methoxyphenyl)amino)methyl-6-(4-methylpiperazin-1-yl)-3-cyanopyridine]",75%
2,"CNc1ccc(N2CCN(Cc3cc(N4CCN(C)CC4)ccc3C#N)CC2)cc1 [VI-20, 4-(4-methylpiperazin-1-yl)-2-(4-(4-methylaminophenyl)piperazin-1-yl)methylbenzonitrile]",78%
3,"Cc1ccc(N2CCN(Cc3cc(N4CCN(C)CC4)ccc3C#N)CC2)cc1 [VI-4, 4-((4-methyl)piperazin-1-yl)-2-(4-(4-methylphenyl)piperazin-1-yl)methylbenzonitrile]",98%
4,"CN(C)CN(C)c1ccc(C#N)c(CN(C)c2ccc(C(C)(C)C)cc2)c1 [Compound 33, 2-((4-tert-butylphenyl)(methyl)amino)methyl-4-(((dimethylamino)methyl)(methyl)amino)benzonitrile]",89%
5,"N#Cc1ccc(N2CCNCC2)cc1CN1CCN(c2ccc(Cl)cc2)CC1 [VI-10, 4-(piperazin-1-yl)-2-(4-(4-chlorophenyl)piperazin-1-yl)methylbenzonitrile]",73%
6,"CN1CCN(c2ccc(C#N)c(CNc3ccc(Cl)cc3)c2)CC1 [Compound 8, 4-(4-methylpiperazin-1-yl)-2-(p-chlorophenylamino)methylbenzonitrile]",91%
7,"CN1CCN(c2ccc(C#N)c(CN3CCN(c4ccc(O)cc4)CC3)c2)CC1 [VI-19, 4-(4-methylpiperazin-1-yl)-2-(4-(4-hydroxylphenyl)piperazin-1-yl)methylbenzonitrile]",67%
8,"CN(C)CNc1ccc(C#N)c(CNc2ccc(C(C)(C)C)cc2)c1 [Compound 32, 2-((4-tert-butylphenyl)amino)methyl-4-((N,N-dimethylamino)methyl)aminobenzonitrile]",73%
9,"CN1CCN(c2ccc(C#N)c(CN3CCN(c4ccc(Cl)cc4)CC3)c2)CC1 [VI-9, 4-(4-methylpiperazin-1-yl)-2-(4-(4-chlorophenyl)piperazin-1-yl)methylbenzonitrile]",92%
10,"Cc1ccc(N2CCN(Cc3cc(N4CCN(C)CC4)ccc3C#N)CC2)cc1C [VI-11, 4-(4-methylpiperazin-1-yl)-2-(4-(3,4-dimethylphenyl)piperazin-1-yl)methylbenzonitrile]",80%
11,"CSc1ccc(N2CCN(Cc3cc(N4CCN(C)CC4)ccc3C#N)CC2)cc1 [VI-17, 4-(4-methylpiperazin-1-yl)-2-(4-(4-(methylthio)phenyl)piperazin-1-yl)methylbenzonitrile]",70%
12,"CN1CCN(c2ccc(C#N)c(CN3CCN(c4ccc(N(C)C)cc4)CC3)c2)CC1 [VI-21, 4-(4-methylpiperazin-1-yl)-2-(4-(4-dimethylaminophenyl)piperazin-1-yl)methylbenzonitrile]",65%
13,"CCCN1CCN(c2ccc(C#N)c(CNc3ccccc3)c2)CC1 [Compound 18, 4-(4-propylpiperazin-1-yl)-2-(phenylamino)methylbenzonitrile]",75%
14,"CCCN(Cc1cc(N2CCN(C)CC2)ccc1C#N)c1ccc(Cl)cc1 [Compound 15, 4-(4-methylpiperazin-1-yl)-2-((p-chlorophenyl)(propyl)amino)methylbenzonitrile]",88%

# Same assay, conditions: compound at 10 μmol/L; Huh7.5 cells infected with HCV virus particles; cultured 96 hrs; HCV RNA in cells vs virus control group
row,SMILES,percent inhibition (%)
1,"CN(C)C1CCN(c2ccc(C#N)c(CN3CCN(c4ccc(Cl)cc4)CC3)c2)C1 (centres unmarked) [VI-44, 4-((3-dimethylamino)pyrrolidin-1-yl)-2-(4-p-chlorophenylpiperazin-1-yl)methylbenzonitrile]",89%
2,"COc1ccc(N2CCN(Cc3cc(NCCN(C)C)ccc3C#N)CC2)cc1 [VI-30, 4-(N′,N′-dimethyl-1,2-ethylenediamin-1-yl)-2-(4-p-methoxyphenylpiperazin-1-yl)methylbenzonitrile]",66%
3,COc1ccc(N2CCN(Cc3cc(NCCN(C)C)ccc3C#N)CC2)cc1 [VI-1],99%
4,"CN(C)CCN(C)c1ccc(C#N)c(CN2CCC(c3ccc(Cl)cc3)CC2)c1 [VI-39, 4-(N,N′,N′-trimethyl-1,2-ethylenediamin-1-yl)-2-(4-p-chlorophenylpiperidin-1-yl)methylbenzonitrile]",88%
5,"CN(C)CCN(C)c1ccc(C#N)c(CN2CCN(c3ccc(OC(F)(F)F)cc3)CC2)c1 [VI-47, 4-(N,N′,N′-trimethyl-1,2-ethylenediamin-1-yl)-2-(4-trifluoromethoxyphenylpiperazin-1-yl)methylbenzonitrile]",93%
6,"COc1ccc(N2CCN(Cc3cc(N(C)CCN(C)C)ccc3C#N)CC2)cc1 [VI-31, 4-(N,N′,N′-trimethyl-1,2-ethylenediamin-1-yl)-2-(4-p-methoxyphenylpiperazin-1-yl)methylbenzonitrile]",91%

# Source: patent US10252987B2, “Type of antiviral compound” (Institute of Medicinal Biotechnology, Chinese Academy of …, priority 2015, dated 2019)
